According to PubChem BioAssay (NCI):
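Values below derive from 48-hour exposures of cells grown in 96-well plates, with endpoints linearly interpolated between the two concentrations bracketing the appropriate inhibition level. GI50 marks 50% less growth. TGI denotes the concentration required for complete inhibition of growth.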

Legend:
Test in all cases: growth of human tumour cells (NCI), 48 h
OVCAR-8 ovarian = test system: OVCAR-8 ovarian
A549 NSCLC = test system: A549 NSCLC
786-0 renal = test system: 786-0 renal
TK-10 renal = test system: TK-10 renal
SF-268 CNS = test system: SF-268 CNS
SK-OV-3 ovarian = test system: SK-OV-3 ovarian
OVCAR-3 ovarian = test system: OVCAR-3 ovarian
U251 CNS = test system: U251 CNS
HCT-15 colon = test system: HCT-15 colon
SNB-19 CNS = test system: SNB-19 CNS

Structure (SMILES)	TGI (OVCAR-8 ovarian) [µM]	TGI (A549 NSCLC) [µM]	TGI (786-0 renal) [µM]	TGI (TK-10 renal) [µM]	TGI (SF-268 CNS) [µM]	TGI (SK-OV-3 ovarian) [µM]	TGI (OVCAR-3 ovarian) [µM]	TGI (U251 CNS) [µM]	TGI (HCT-15 colon) [µM]	TGI (SNB-19 CNS) [µM]	GI50 (U251 CNS) [µM]	GI50 (OVCAR-8 ovarian) [µM]	GI50 (A549 NSCLC) [µM]	GI50 (786-0 renal) [µM]	GI50 (TK-10 renal) [µM]	GI50 (SF-268 CNS) [µM]	GI50 (SK-OV-3 ovarian) [µM]	GI50 (OVCAR-3 ovarian) [µM]	GI50 (HCT-15 colon) [µM]	GI50 (SNB-19 CNS) [µM]
O=c1[nH]c2cc([N+](=O)[O-])ccc2nc1/C(=N\Nc1ccccc1)C(O)c1ccc2c(c1)OCO2 (stereo unspecified)	> 100	> 100	> 100	> 100	> 100	> 100	> 100	> 100	58.2	> 100										
Cc1cccc(C)c1N1C(=O)C(=O)C(c2nc3ccccc3s2)C(=Nc2cccc3c(=O)[nH][nH]c(=O)c23)C1=O (stereo unspecified)	> 100	> 100	> 100	> 100	> 100	> 100	> 100	> 100	> 100	> 100										
CC(C)[O-].CC(C)[O-].O=c1cccccc1[O-].O=c1cccccc1[O-].[Ti+4]	> 100	> 100	69.9	> 100	> 100	> 100	> 100	> 100	> 100	> 100	28.9									
Cc1cccc(N=Nc2ccc(N=Nc3c(O)ccc4ccccc34)cc2C)c1	60.3	> 100	> 100	> 100	> 100	92.4	> 100	> 100	> 100	> 100										
O=C(Cl)C1=C(c2ccccc2)C1c1ccccc1 (stereo unspecified)	> 100	> 100	> 100	> 100	> 100	> 100	> 100	> 100	> 100	> 100										
CC1c2ccccc2N=C2SC(=S)N3CCN=C3N21 (stereo unspecified)	> 100	> 100	> 100	> 100	> 100	> 100	> 100	> 100	> 100	> 100	> 100	> 100	> 100	> 100	> 100	> 100	> 100	> 100	> 100	> 100
COc1c(O)c(OC)c2oc(-c3ccc(O)cc3)c(OC)c(=O)c2c1O	> 100	> 100	86.3	> 100	34.1	53.7	74.9	> 100	> 100	> 100										
CC1(O)CCn2c(=O)c3cc4ccccc4cc3c(=O)n2C1O (stereo unspecified)	> 100	> 100	> 100	> 100	> 100	> 100	> 100	> 100	> 100	> 100										
CC(=Nc1ccc(S(N)(=O)=O)cc1)c1c(O)[nH]c2ccccc12	> 25	> 25	> 25	> 25	> 25	> 25	> 25	> 25	> 25	> 25	> 25	> 25	> 25	> 25	> 25	> 25	> 12.2	> 25	> 25	> 25
CCOC(OC1=C(C#N)CCCC1)C(CC)[Se]c1ccccc1 (stereo unspecified)	34.7	> 100	31.6	> 100	27.8	> 100	54.6	44.3	33	> 100										
CC(C)[O-].CC(C)[O-].CN(CCN(C)Cc1cc(F)cc(F)c1[O-])Cc1cc(F)cc(F)c1[O-].[Ti+4]	6.55	7.95	5.7	7.26	3.22	9.09	6.78	1.83	15.1	8.15	0.438	1.09	0.892	1.48	1.42	1.04	0.634	0.923	0.526	0.909
COC(=O)C1C(=O)N(CCc2c[nH]c3ccccc23)C[C@@H]2CCC(=O)C[C@H]12 (stereo partly specified)	> 100	> 100	> 100	> 100	> 100	> 100	> 100	> 100	> 100	> 100										
